{
  "source": "patent US20220233468A1",
  "about": "(priority 2021, published 2022)",
  "assay_in_all_cases": "microbe, parasite or virus in culture",
  "assay_type_in_all_cases": "cell-based",
  "key": {"[1]": {"tested_on": "pseudovirions harboring S protein from SARS-CoV-2 Alpha variant (B.1.1.7)", "details": "for EC50: Severe acute respiratory syndrome coronavirus 2"}, "[2]": {"tested_on": "pseudovirions harboring S protein from SARS-CoV-2 Beta variant (B.1.351)", "details": "for EC50: Severe acute respiratory syndrome coronavirus 2"}, "[3]": {"tested_on": "pseudovirions harboring S protein from SARS-CoV-2 Gamma variant (P.1)", "details": "Severe acute respiratory syndrome coronavirus 2"}, "[4]": {"tested_on": "pseudovirions harboring S protein from SARS-CoV-2 Delta variant (B.1.617.2)", "details": "for EC50: Severe acute respiratory syndrome coronavirus 2"}, "[5]": {"details": "read-out: EC50, inhibition of cellular entry of pseudovirions, Gamma variant"}},
  "note": "Where two headings read alike, the source gives them in different places.",
  "data": [
    {"compound": "COc1ccc(/C=C/C(=O)C(F)(CC2CCC2)C(=O)/C=C/c2ccc(OC)c(OC)c2)cc1OC", "note": "[Compound A, 4-fluoro-4-cyclobutylmethyl-1,7-bis(3,4-dimethoxyphenyl)hepta-1,6-diene-3,5-dione]", "values": [
      {"measurement": "inhibition of cellular entry of pseudovirions with Spike variants (in words), Alpha variant", "setting": "[1]", "result": "showed inhibition of cellular entry"},
      {"measurement": "inhibition of cellular entry of pseudovirions with Spike variants (in words), Beta variant", "setting": "[2]", "result": "showed inhibition of cellular entry"},
      {"measurement": "EC50", "setting": "[3]; [5]", "result": "~4", "unit": "µM"},
      {"measurement": "inhibition of cellular entry of pseudovirions with Spike variants (in words), Delta variant", "setting": "[4]", "result": "showed inhibition of cellular entry"}
    ]},
    {"compound": "COc1ccc(/C=C/C(=O)C(CC2CCC2)C(=O)/C=C/c2ccc(OC)c(OC)c2)cc1OC", "note": "[Compound B, 4-(cyclobutylmethyl)-1,7-bis(3,4-dimethoxyphenyl)hepta-1,6-diene-3,5-dione]", "values": [
      {"measurement": "EC50", "setting": "[1]; read-out: EC50, inhibition of cellular entry of pseudovirions, Alpha variant", "result": "~4.4", "unit": "µM"},
      {"measurement": "EC50", "setting": "[1]; read-out: EC50, prophylactic inhibition of cellular entry of pseudovirions, Alpha variant", "result": "~3.2", "unit": "µM"},
      {"measurement": "EC50", "setting": "[2]; read-out: EC50, inhibition of cellular entry of pseudovirions, Beta variant", "result": "~4.7", "unit": "µM"},
      {"measurement": "EC50", "setting": "[2]; read-out: EC50, prophylactic inhibition of cellular entry of pseudovirions, Beta variant", "result": "~3.3", "unit": "µM"},
      {"measurement": "EC50", "setting": "[3]; [5]", "result": "~4.7", "unit": "µM"},
      {"measurement": "EC50", "setting": "[3]; read-out: EC50, prophylactic inhibition of cellular entry of pseudovirions, Gamma variant", "result": "~3.6", "unit": "µM"},
      {"measurement": "EC50", "setting": "[4]; read-out: EC50, inhibition of cellular entry of pseudovirions, Delta variant", "result": "~4.9", "unit": "µM"},
      {"measurement": "EC50", "setting": "[4]; read-out: EC50, prophylactic inhibition of cellular entry of pseudovirions, Delta variant", "result": "~3.8", "unit": "µM"}
    ]}
  ]
}
